Biological target: T1, RORc ligand binding domain (Homo sapiens, UniProt P51449)
T1 sequence (P51449 269-508 limits assumed): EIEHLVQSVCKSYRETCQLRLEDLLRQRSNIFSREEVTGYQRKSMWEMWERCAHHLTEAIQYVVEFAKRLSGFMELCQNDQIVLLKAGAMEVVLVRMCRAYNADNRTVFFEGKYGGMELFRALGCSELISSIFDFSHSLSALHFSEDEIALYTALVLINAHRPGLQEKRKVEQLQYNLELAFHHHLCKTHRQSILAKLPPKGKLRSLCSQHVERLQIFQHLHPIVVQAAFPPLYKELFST
Experiment: In Vitro RORc Ligand Binding Assay
Conditions: RORc IC50, radioligand 25-[3H]hydroxycholesterol 6 nM; 0.6 ug/mL RORc receptor; 3 h at 25° C.

IC50 [nM]	SMILES
15	CC1(C)[C@H]2CC[C@]1(c1ncccn1)c1nnc(-c3c(F)cccc3F)cc12 [Example 1, (5R,8R)-3-(2,6-difluorophenyl)-9,9-dimethyl-8-(pyrimidin-2-yl)-5,6,7,8-tetrahydro-5,8-methanocinnoline]
13.4	CC1(C)[C@H]2CC[C@]1(c1cccnn1)c1nnc(-c3c(F)cccc3F)cc12 [Example 2, (5R,8S)-3-(2,6-difluorophenyl)-9,9-dimethyl-8-(pyridazin-3-yl)-5,6,7,8-tetrahydro-5,8-methanocinnoline]
38.4	CC1(C)[C@H]2CC[C@]1(c1c[nH]c(=O)cn1)c1nnc(-c3c(F)cccc3F)cc12 [Example 5, 5-((5R,8S)-3-(2,6-difluorophenyl)-9,9-dimethyl-5,6,7,8-tetrahydro-5,8-methanocinnolin-8-yl)pyrazin-2(1H)-one]
115	CC1(C)[C@H]2CC[C@]1(c1ncc(O)cn1)c1nnc(-c3c(F)cccc3F)cc12 [Example 6, 2-((5R,8R)-3-(2,6-difluorophenyl)-9,9-dimethyl-5,6,7,8-tetrahydro-5,8-methanocinnolin-8-yl)pyrimidin-5-ol]
64	CC1(C)[C@H]2CC[C@]1(c1ccnc(=O)[nH]1)c1nnc(-c3c(F)cccc3F)cc12 [Example 7, 6-((5R,8S)-3-(2,6-difluorophenyl)-9,9-dimethyl-5,6,7,8-tetrahydro-5,8-methanocinnolin-8-yl)pyrimidin-2(1H)-one]
108	Cn1c([C@@]23CC[C@@H](c4cc(-c5c(F)cccc5F)nnc42)C3(C)C)ccc(C#N)c1=O [Example 8, 6-((5R,8S)-3-(2,6-difluorophenyl)-9,9-dimethyl-5,6,7,8-tetrahydro-5,8-methanocinnolin-8-yl)-1-methyl-2-oxo-1,2-dihydropyridine-3-carbonitrile]
7.7	COC(=O)c1cncc([C@@]23CC[C@@H](c4cc(-c5c(F)cccc5F)nnc42)C3(C)C)n1 [Example 9, methyl 6-((5R,8S)-3-(2,6-difluorophenyl)-9,9-dimethyl-5,6,7,8-tetrahydro-5,8-methanocinnolin-8-yl)pyrazine-2-carboxylate]
389	COC(=O)c1cnc([C@@]23CC[C@@H](c4cc(-c5c(F)cccc5F)nnc42)C3(C)C)cn1 [Example 10, methyl 5-((5R,8S)-3-(2,6-difluorophenyl)-9,9-dimethyl-5,6,7,8-tetrahydro-5,8-methanocinnolin-8-yl)pyrazine-2-carboxylate]
38.9	CC1(C)[C@H]2CC[C@]1(c1cncc(C(=O)O)n1)c1nnc(-c3c(F)cccc3F)cc12 [Example 11, 6-((5R,8S)-3-(2,6-difluorophenyl)-9,9-dimethyl-5,6,7,8-tetrahydro-5,8-methanocinnolin-8-yl)pyrazine-2-carboxylic acid]
18.3	CC1(C)[C@H]2CC[C@]1(c1cncc(C(N)=O)n1)c1nnc(-c3c(F)cccc3F)cc12 [Example 12, 6-((5R,8S)-3-(2,6-difluorophenyl)-9,9-dimethyl-5,6,7,8-tetrahydro-5,8-methanocinnolin-8-yl)pyrazine-2-carboxamide]
4270	CC1(C)[C@H]2CC[C@]1(c1cnc(C(N)=O)cn1)c1nnc(-c3c(F)cccc3F)cc12 [Example 13, 5-((5R,8S)-3-(2,6-difluorophenyl)-9,9-dimethyl-5,6,7,8-tetrahydro-5,8-methanocinnolin-8-yl)pyrazine-2-carboxamide]
5.7	CC1(C)[C@H]2CC[C@]1(c1cncc(C#N)n1)c1nnc(-c3c(F)cccc3F)cc12 [Example 14, 6-((5R,8S)-3-(2,6-difluorophenyl)-9,9-dimethyl-5,6,7,8-tetrahydro-5,8-methanocinnolin-8-yl)pyrazine-2-carbonitrile]
1310	CC1(C)[C@H]2CC[C@]1(c1cnc(C#N)cn1)c1nnc(-c3c(F)cccc3F)cc12 [Example 15, 5-((5R,8S)-3-(2,6-difluorophenyl)-9,9-dimethyl-5,6,7,8-tetrahydro-5,8-methanocinnolin-8-yl)pyrazine-2-carbonitrile]
7.6	CC1(C)[C@H]2CC[C@]1(c1cccc(C#N)n1)c1nnc(-c3c(F)cccc3F)cc12 [Example 16, 6-((5R,8S)-3-(2,6-difluorophenyl)-9,9-dimethyl-5,6,7,8-tetrahydro-5,8-methanocinnolin-8-yl)picolinonitrile]
20.5	CNC(=O)c1cccc([C@@]23CC[C@@H](c4cc(-c5c(F)cccc5F)nnc42)C3(C)C)n1 [Example 17, 6-((5R,8S)-3-(2,6-difluorophenyl)-9,9-dimethyl-5,6,7,8-tetrahydro-5,8-methanocinnolin-8-yl)-N-methylpicolinamide]
35.7	CN(C)C(=O)c1cccc([C@@]23CC[C@@H](c4cc(-c5c(F)cccc5F)nnc42)C3(C)C)n1 [Example 18, 6-((5R,8S)-3-(2,6-difluorophenyl)-9,9-dimethyl-5,6,7,8-tetrahydro-5,8-methanocinnolin-8-yl)-N,N-dimethylpicolinamide]

IC50 [nM]	SMILES
20.3	Cc1cncnc1[C@@]12CC[C@@H](c3cc(-c4c(F)cccc4F)nnc31)C2(C)C [Example 19]
140	CC1(C)[C@H]2CC[C@]1(c1nccc(=O)[nH]1)c1nnc(-c3c(F)cccc3F)cc12 [Example 20, 2-((5R,8R)-3-(2,6-difluorophenyl)-9,9-dimethyl-5,6,7,8-tetrahydro-5,8-methanocinnolin-8-yl)pyrimidin-4(3H)-one]
23.8	COc1ccnc([C@@]23CC[C@@H](c4cc(-c5c(F)cccc5F)nnc42)C3(C)C)n1 [Example 21, (5R,8R)-3-(2,6-difluorophenyl)-8-(4-methoxypyrimidin-2-yl)-9,9-dimethyl-5,6,7,8-tetrahydro-5,8-methanocinnoline]
33.5	CC1(C)[C@H]2CC[C@]1(c1cc(=O)cco1)c1nnc(-c3c(F)cccc3F)cc12 [Example 22, 2-((5R,8R)-3-(2,6-difluorophenyl)-9,9-dimethyl-5,6,7,8-tetrahydro-5,8-methanocinnolin-8-yl)-4H-pyran-4-one]
21.9	CC1(C)[C@H]2CC[C@]1(c1ccnc(N)n1)c1nnc(-c3c(F)cccc3F)cc12 [Example 23]
1940	CC1(C)[C@H]2CC[C@]1(c1cc(=O)cc[nH]1)c1nnc(-c3c(F)cccc3F)cc12 [Example 24, 2-((5R,8S)-3-(2,6-difluorophenyl)-9,9-dimethyl-5,6,7,8-tetrahydro-5,8-methanocinnolin-8-yl)pyridin-4(1H)-one]
2490	CC1(C)[C@H]2CC[C@]1(c1cc(O)cc(=O)o1)c1nnc(-c3c(F)cccc3F)cc12 [Example 25, 6-((5R,8R)-3-(2,6-difluorophenyl)-9,9-dimethyl-5,6,7,8-tetrahydro-5,8-methanocinnolin-8-yl)-4-hydroxy-2H-pyran-2-one]
57.2	COc1ccnc([C@@]23CC[C@@H](c4cc(-c5c(F)cccc5F)nnc42)C3(C)C)c1 [Example 26]
26.4	CNC(=O)c1cncc([C@@]23CC[C@@H](c4cc(-c5c(F)cccc5F)nnc42)C3(C)C)n1 [Example 27, 6-((5R,8S)-3-(2,6-difluorophenyl)-9,9-dimethyl-5,6,7,8-tetrahydro-5,8-methanocinnolin-8-yl)-N-methylpyrazine-2-carboxamide]
41.7	CN(C)C(=O)c1cncc([C@@]23CC[C@@H](c4cc(-c5c(F)cccc5F)nnc42)C3(C)C)n1 [Example 28, 6-((5R,8S)-3-(2,6-difluorophenyl)-9,9-dimethyl-5,6,7,8-tetrahydro-5,8-methanocinnolin-8-yl)-N,N-dimethylpyrazine-2-carboxamide]
43.1	CC1(C)[C@H]2CC[C@]1(c1cncc(C(=O)NC3COC3)n1)c1nnc(-c3c(F)cccc3F)cc12 [Example 29, 6-((5R,8S)-3-(2,6-difluorophenyl)-9,9-dimethyl-5,6,7,8-tetrahydro-5,8-methanocinnolin-8-yl)-N-(oxetan-3-yl)pyrazine-2-carboxamide]
146	CC1(C)[C@H]2CC[C@]1(c1cncc(C(=O)N3CC(C#N)C3)n1)c1nnc(-c3c(F)cccc3F)cc12 [Example 30, 1-(6-((5R,8S)-3-(2,6-difluorophenyl)-9,9-dimethyl-5,6,7,8-tetrahydro-5,8-methanocinnolin-8-yl)pyrazine-2-carbonyl)azetidine-3-carbonitrile]
93.3	CC1(C)[C@H]2CC[C@]1(c1cncc(C(=O)N3CC(CO)C3)n1)c1nnc(-c3c(F)cccc3F)cc12 [Example 31, (6-((5R,8S)-3-(2,6-difluorophenyl)-9,9-dimethyl-5,6,7,8-tetrahydro-5,8-methanocinnolin-8-yl)pyrazin-2-yl)(3-(hydroxymethyl)azetidin-1-yl)methanone]
22	CC(=O)Nc1cncc([C@@]23CC[C@@H](c4cc(-c5c(F)cccc5F)nnc42)C3(C)C)n1 [Example 32, N-(6-((5R,8S)-3-(2,6-difluorophenyl)-9,9-dimethyl-5,6,7,8-tetrahydro-5,8-methanocinnolin-8-yl)pyrazin-2-yl)acetamide]
22	CC1(C)[C@H]2CC[C@]1(c1cncc(N)n1)c1nnc(-c3c(F)cccc3F)cc12 [Example 33, 6-((5R,8S)-3-(2,6-difluorophenyl)-9,9-dimethyl-5,6,7,8-tetrahydro-5,8-methanocinnolin-8-yl)pyrazin-2-amine]
75.9	CC1(C)[C@H]2CC[C@]1(c1cncc(NS(C)(=O)=O)n1)c1nnc(-c3c(F)cccc3F)cc12 [Example 34, N-(6-((5R,8S)-3-(2,6-difluorophenyl)-9,9-dimethyl-5,6,7,8-tetrahydro-5,8-methanocinnolin-8-yl)pyrazin-2-yl)methanesulfonamide]

Source: patent US10487068B2, “Pyridazine derivatives as RORc modulators” (Genentech, Inc., priority 2015, dated 2019)
